Experimental data published in PMC8062632, “Structural studies of phosphorylation-dependent interactions between the V2R receptor and arrestin-2” (Nature Communications, 2021).

Columns and labels:
Test in all cases: FlAsH-BRET recruitment of MEK1 to arrestin2
Format in all cases: cell-based
V2R-1 (V2R-T347A) = details: HEK293 cells; for ΔBRET ratio, MEK1 recruitment to arrestin2: V2R-1, Argipressin 10 μM, 37 °C, 10 min
Method: (§1) The blue ball: K357 site in arrestin2; Yellow pentagram: the position of FlAsH labeled in MEK1. […] Data are expressed as ΔBRET ratio relative values and represent the mean ± SEM of three independent experiments (n = 3). […] Source data are provided in the Source Data file.
(§2) 24 h after transfection, the cells were detached and distributed into 96-well plates at a density of ~25,000 cells per well. After another 24 h of incubation at 37 °C, the cells were labeled FlAsH-EDT2 for 40 min at 37 °C and washed twice with Tyrode’s buffer (140 mM NaCl, 2.7 mM KCl, 1 mM CaCl2, 12 mM NaHCO3, 5.6 mM D-glucose, 0.5 mM MgCl2, 0.37 mM NaH2PO4, and 25 mM HEPES, pH = 7.4) and stimulated with or without Argipressin (final concentration of 10 μM) at 37 °C for 10 min Luciferase substrate coelenterazine-h was added at a final concentration of 5 μM before light emissions were recorded using a Mithras LB940 microplate reader (Berthold Technologies) equipped with BRET filter sets. The BRET signal was determined by calculating the ratio of the light intensity emitted by YFP ([…]) over the light intensity emitted by Rluc ([…]). Source data are provided in a Source Data file.

V2R-3 (V2R-S357A) = details: HEK293 cells; for ΔBRET ratio, MEK1 recruitment to arrestin2: V2R-3, Argipressin 10 μM, 37 °C, 10 min
Method: as §1, §2

V2R-WT = details: HEK293 cells; for ΔBRET ratio, MEK1 recruitment to arrestin2: V2R-WT, Argipressin 10 μM, 37 °C, 10 min
Method: as §1, §2

Q: Which results are given for vasopressin?
A: ΔBRET ratio, MEK1 recruitment to arrestin2 (V2R-1 (V2R-T347A); Data1): 0.008; ΔBRET ratio, MEK1 recruitment to arrestin2 (V2R-1 (V2R-T347A); Data2): 0.004; ΔBRET ratio, MEK1 recruitment to arrestin2 (V2R-1 (V2R-T347A); Data3): 0.005; recruitment of MEK1 to arrestin2 (V2R-1 (V2R-T347A); V2 receptor T347A mutant, in words): significantly increased; MEK1-arrestin2 association in response to vasopressin stimulation (V2R-3 (V2R-S357A); S357A mutation of V2R, in words): almost abolished; ΔBRET ratio, MEK1 recruitment to arrestin2 (V2R-3 (V2R-S357A); Data1): 0; ΔBRET ratio, MEK1 recruitment to arrestin2 (V2R-3 (V2R-S357A); Data2): 0.001; ΔBRET ratio, MEK1 recruitment to arrestin2 (V2R-3 (V2R-S357A); Data3): 0.001; ΔBRET ratio, MEK1 recruitment to arrestin2 (V2R-WT; Data1): 0.008; ΔBRET ratio, MEK1 recruitment to arrestin2 (V2R-WT; Data2): 0.005; ΔBRET ratio, MEK1 recruitment to arrestin2 (V2R-WT; Data3): 0.008; recruitment of MEK1 to arrestin2 (V2R-WT; wild-type V2 receptor, in words): significantly increased
